Measurements taken from patent US20160220609A1, “REGULATION OF STEROIDOGENIC ACTIVITY BY USING PURIFIED SHILAJIT” (NATREON, INC., priority 2013, published 2016).

System: steroidogenic genes in mouse skeletal muscle
Test: Gene expression profiling (Affymetrix GeneChip) of skeletal muscle of mice supplemented for 12 weeks
Type: in vivo
Conditions: 10 mg/kg body weight intragastric in DMSO/corn oil
Experimental: Procedure for Studies in Mice Using Shilajit and DBPs:
Three groups of adult mice (n=8) were intragastrically supplemented with purified Shilajit (PS), 3,8-(OH)2-DBP, or placebo for 12 weeks. At the end of week 12, skeletal muscle tissue was harvested for gene profiling. Some tissue was stored for histology and HPLC analysis.
The control group of mice received DMSO in corn oil while the PS group received 100 mg of purified Shilajit/kg body weight of mice, dissolved in water and the DBP group received 10 mg of 3,8-(OH)2-DBP/kg body weight of mice, dissolved in DMSO/corn oil.
At week 12, the following tissues were collected from mice: heart, lung, liver, brain, muscles, adipose tissue, skeletal muscle (vastus lateralis) and whole blood.
Gene Expression Profiling using GeneChip® Assay
Affymetrix GeneChip® technology (Affymetrix, Santa Clara, Calif.) was used for transcriptome profiling of skeletal muscle tissue. Gene chip assays were performed in accordance with the following references: Roy, S., Biswas, S., Khanna, S., Gordillo, G., Bergdall, V., Green, J., Marsh, C. B., Gould, L. J., Sen, C. K., “Characterization of a preclinical model of chronic ischemic wound,” Physiol. Genomics (2009) May 13; 37(3):211-24; Roy, S., Khanna, S., Rink, C., Biswas, S., Sen, C. […]

SMILES: O=c1oc2cc(O)ccc2c2ccc(O)cc12 [3,8-(OH)2-DBP, 3,8-dihydroxy-dibenzo-a-pyrone]
- Effect on steroidogenic activity in mice: did not show significant effect
